Reference: patent US20240166643A1, “IMIDAZO[1,2-A]PYRIDINE COMPOUNDS AND THEIR USE IN THERAPY” (Imperial College Innovations Limited, priority 2020, published 2024)

Assays:
[1] = system: BL-41 cells; test: Metabolic activity assay (MTS assay) in BL-41 cell line; assay type: cell-based; details: Homo sapiens, 72 h
[2] = system: SU-DHL-10 cells; test: Cell cytotoxicity in SU-DHL-10 cell line (CellTiter-Glo); assay type: cell-based; details: Homo sapiens, SU-DHL10; CellTiter-Glo, 48 h; read-out: SU-DHL-10 EC50
[3] = system: BL-41 cells; test: CellTiter-Blue assay, BL-41; assay type: cell-based; details: Homo sapiens, BL41 cell line, 72 hours
Experimental: (§1) Assay (d): CellTiter-Blue® Assay
(§2) BL-41, Ramos, Raji and A20 cells (obtained from Cell Services at the Crick Institute; cell type of BL-41, Ramos, Raji: Burkitt's Lymphoma; cell type of A20: murine B cell lymphoma cell line) were grown in RPMI-1640 media in 5% CO2 (supplemented with 10% FBS). The cells were seeded in 96-well plates, 24 h prior to treatment. Cell suspensions were prepared by adjusting the cell density to the appropriate concentration (as stated in the Table 9 below) and 50 μL of the cell suspension was transferred to wells B-G in columns 2-11 of a 96-well plate. […]
(§3) 72 hours later, 20 μl/well CellTiter-Blue® (G8081, Promega) were added to the plates according to the manufacturer's protocol, the plate was incubated at 37° C. for 2 or 3-4 h (A20, Ramos and Raji: 2 h; BL-41 and EL-4: 3-4 h), followed by measuring the absorbance per well at 570 nm using an EnVision plate reader. […] The metabolic activity was calculated as a percentage relative to the positive control. The EC50 values were calculated using GraphPad Prism.

[4] = system: EL4 cells; test: CellTiter-Blue assay, EL4; assay type: cell-based; details: EL4 cell line, 72 hours
Experimental: as §1
Cell suspensions were prepared by adjusting the cell density to the appropriate concentration (as stated in the Table 10 below) and 50 μL of the cell suspension was transferred to wells B-G in columns 2-11 of a 96-well plate.
For each the BL-41, Ramos, Raji, A20 cell lines and EL4, twenty-four hours later, 50 μL of the growth media for the respective cell line (positive control), a mix of Puromycin and Staurosporine (negative controls, final concentration 10 μg/mL and 1 μM respectively) or different concentrations of each Example compound being tested (dilution factor=3, starting at μM, final concentration in the plate starting from 10 μM) were prepared and added to a well of the 96-well plate. The plate was incubated at 37° C. with 5% CO2 level.
72 hours later, 20 μl/well CellTiter-Blue® (G8081, Promega) were added to the plates according to the manufacturer's protocol, the plate was incubated at 37° C. for 2 or 3-4 h (A20, Ramos and Raji: 2 h; BL-41 and EL-4: 3-4 h), followed by measuring the absorbance per well at 570 nm using an EnVision plate reader. The negative control values were subtracted from every value. The metabolic activity was calculated as a percentage relative to the positive control. The EC50 values were calculated using GraphPad Prism.

[5] = system: Ramos cells; test: CellTiter-Blue assay, Ramos; assay type: cell-based; details: Homo sapiens, Ramos cell line, 72 hours
Experimental: as §1, §2, §3

[6] = system: Raji cells; test: CellTiter-Blue assay, Raji; assay type: cell-based; details: Homo sapiens, Raji cell line, 72 hours
Experimental: as §1, §2, §3

[7] = system: A20 cells; test: CellTiter-Blue assay, A20; assay type: cell-based, murine; details: Mus musculus, A20 cell line, 72 hours
Experimental: as §1, §2, §3

[8] = Rat clearance and bioavailability (iv and oral dosing); assay type: in vivo; details: male, Sprague-Dawley, plasma, administered as a single compound
[9] = system: Plasmodium falciparum 3D7; test: SYBR Green assay, Plasmodium falciparum strain 3D7; assay type: cell-based; details: P. falciparum strain 3D7, 96 h incubation, read-out: Pf EC50 strain 3D7
[10] = system: DOHH-2 tumor cells; test: Mouse xenograft, subcutaneous DOHH-2 Lymphoma Model; assay type: in vivo; details: compared to vehicle
Experimental: Assay (i): Mouse Xenograft Protocol
The in vivo efficacy was assess in a subcutaneous xenograft DOHH-2 Lymphoma Model using Female 6-8 week old CB17/SCID Mice. […] The test compound administration started once the mean tumor size reached approximately 100-150 mm3. Compounds were administered either IP (vehicle 58% Na2HPO4 buffer (10 mM) (pH4.5)+40% PEG400+2% DMSO) or orally (vehicle Na2HPO4 buffer (10 mM) (pH 4.5)+0.2% tween 80). Tumor volumes were measured in two dimensions using a caliper, and the volume expressed in mm3 using the formula: V=(L×W×W)/2, where V is tumor volume, L is tumor length (the longest tumor dimension) and W is tumor width (the longest tumor dimension perpendicular to L).
Mice were dosed with Example 2 orally (50 mg/kg) once a day for 9 consecutive days (FIG. 5a), or Example 2 was dosed intraperitonally (25 mg/kg) in a cycle consisting of administration twice a day for three days followed by a four day no-dosing period (FIG. 5b). The cycle was repeated three times.
Mice were dosed with Example 129 intraperitonally (25 mg/kg) in a cycle consisting of administration twice a day for three days followed by a four day no-dosing period (Figure Sc). The cycle was repeated three times.
The protocol and any amendment(s) or procedures involving the care and use of animals in this study were reviewed and approved by the Institutional Animal Care and Use Committee (IACUC) of CrownBio prior to execution. During the study, the care and use of animals was conducted in accordance with the regulations of the Association for Assessment and Accreditation of Laboratory Animal Care (AAALAC).

[11] = in vitro; details: male, Sprague-Dawley, rat, pooled cryopreserved rat hepatocytes, pH 7.4
[12] = target: Human NMT1 (HsNMT1) (Homo sapiens, UniProt P30419); test: biochemical
[13] = target: Plasmodium vivax (Pv) NMT (Plasmodium vivax (strain Salvador I), UniProt A5K1A2); test: biochemical
[14] = target: Plasmodium falciparum NMT (Plasmodium falciparum (isolate 3D7), UniProt Q8ILW6); details: cited from earlier work

Sequence of Human NMT1 (HsNMT1) (P30419 whole entry, looked up): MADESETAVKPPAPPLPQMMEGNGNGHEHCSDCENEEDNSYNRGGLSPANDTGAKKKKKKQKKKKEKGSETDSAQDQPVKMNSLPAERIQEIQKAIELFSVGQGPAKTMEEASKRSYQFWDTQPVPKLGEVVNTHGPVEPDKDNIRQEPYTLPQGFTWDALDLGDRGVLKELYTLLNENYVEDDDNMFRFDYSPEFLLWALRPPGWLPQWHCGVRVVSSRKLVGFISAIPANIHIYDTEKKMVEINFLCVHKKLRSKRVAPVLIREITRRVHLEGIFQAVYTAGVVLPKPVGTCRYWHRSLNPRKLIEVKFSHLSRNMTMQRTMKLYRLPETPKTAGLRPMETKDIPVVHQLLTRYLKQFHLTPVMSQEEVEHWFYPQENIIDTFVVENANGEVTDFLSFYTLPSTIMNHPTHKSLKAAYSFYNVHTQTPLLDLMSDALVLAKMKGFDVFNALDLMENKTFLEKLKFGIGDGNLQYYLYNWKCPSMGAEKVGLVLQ
Sequence of Plasmodium vivax (Pv) NMT (A5K1A2 1-410): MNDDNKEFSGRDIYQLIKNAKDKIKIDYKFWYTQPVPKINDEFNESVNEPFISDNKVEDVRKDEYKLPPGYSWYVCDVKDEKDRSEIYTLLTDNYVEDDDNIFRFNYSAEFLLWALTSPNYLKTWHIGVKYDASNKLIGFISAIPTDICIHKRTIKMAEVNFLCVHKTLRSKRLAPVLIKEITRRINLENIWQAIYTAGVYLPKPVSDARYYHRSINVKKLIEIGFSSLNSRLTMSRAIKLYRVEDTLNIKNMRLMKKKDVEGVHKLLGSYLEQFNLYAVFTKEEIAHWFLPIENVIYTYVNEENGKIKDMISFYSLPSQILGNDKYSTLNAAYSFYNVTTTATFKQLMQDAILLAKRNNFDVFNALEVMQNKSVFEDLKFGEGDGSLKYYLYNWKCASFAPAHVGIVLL

SMILES	EC50 [1] [µM]	EC50 [2] [µM]	EC50 [3] [µM]	EC50 [4] [µM]	EC50 [5] [µM]	EC50 [6] [µM]	EC50 [7] [µM]	half-life ([8]; iv 1 mg/kg, read-out: Rat iv t1/2 (converted)) [h]	bioavailability ([8]; oral 10 mg/kg) [%]	EC50 [9] [µM]	tumour volume ([10]; intraperitoneally 25 mg/kg twice a day for three days then four day no-dosing, cycle repeated three times)	tumour volume ([10]; orally 50 mg/kg once a day for 9 consecutive days)	half-life at 1 µM [11] [h]	IC50 [12] [µM]	IC50 [13] [µM]	selective activity for Plasmodium falciparum NMT over both human NMTs [14]
C[C@H]1CN(C)CCN1c1ncc(Cl)c(N2CC(C(=O)NC(C)(C)c3cnc4ccccn34)C2)n1 [Example 2, 1-(5-chloro-2-[(2S)-2,4-dimethylpiperazin-1-yl]pyrimidin-4-yl)-N-(2-{imidazo[1,2-a]pyridin-3-yl}propan-2-yl)azetidine-3-carboxamide]	0.22	0.051	0.557	0.139	0.218	0.556	0.6	3.5	28	0.0024	significant reduction in tumour volume	significant reduction in tumour volume	1.52	0.0027	0.0041	
Cc1cnc(CNC(=O)C2CN(c3nc(NCCN(C)C)ncc3Cl)C2)cn1 [PF-03531814, 1-(5-chloro-2-{[2-(dimethylamino)ethyl]amino}pyrimidin-4-yl)-N-[(5-methylpyrazin-2-yl)methyl]azetidine-3-carboxamide]																selective activity
